Measured values reported in patent US11660311B2, “Cyclic dinucleotides as anticancer agents” (priority 2017, dated 2023).
Read-outs that look alike come from different tables or passages of the source.

Assays:
[1] = biological target: T1, STING WT: His-TVMV-S-hSTING(155-341)-H232R (Homo sapiens, UniProt Q86WV6, H232R); assay: STING HTRF Binding Assay, STING WT; settings: 20 nM His-tagged STING cytoplasmic domain, 200 nM fluorescein-labeled cGAMP analog probe, one hour; read-out: HTRF Binding Assays IC50 (μM) STING WT
T1 construct: STING WT: His-TVMV-S-hSTING(155-341)-H232R
T1 sequence (Q86WV6 with tags, fused parts or gaps H232R): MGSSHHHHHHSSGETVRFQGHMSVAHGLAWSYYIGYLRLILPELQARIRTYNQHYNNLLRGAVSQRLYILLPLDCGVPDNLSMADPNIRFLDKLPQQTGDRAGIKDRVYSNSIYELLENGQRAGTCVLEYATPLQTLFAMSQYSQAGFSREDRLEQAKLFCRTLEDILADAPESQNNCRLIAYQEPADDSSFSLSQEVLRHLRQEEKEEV
Description: (§1) A time resolved FRET-based competition binding assay was used to assess test article binding to STING WT and STING AQ. His-tagged STING cytoplasmic domain (WT or AQ) at a concentration of 20 nM was incubated with 2.5 nM Tb-labeled anti-His antibody, test compound, and fluorescein-labeled cGAMP analog probe (BioLog cat. no. C195) at a concentration of 200 nM (STING WT) or 40 nM (STING AQ) in PBS containing 0.005% Tween-20 and 0.1% BSA for one hour. Fluorescence at 495 nm and 520 nm was measured using an EnVision microplate reader to quantify FRET between Tb-labeled anti-His antibody and fluorescein-labeled probe. Background was defined as the signal obtained in the absence of STING protein, and background subtracted FRET ratios were normalized to the maximum signal obtained in the absence of test compound. These values were converted to a percent inhibition. Percent inhibition was determined for test compounds at 11 concentrations. The IC50, defined as the concentration of competing test compound needed to reduce specific binding of the probe by 50%, was calculated using the 4 parameter logistic equation to fit the data

[2] = biological target: T2, STING AQ: His-TVMV-S-hSTING(155-341)-G230A-R293Q (Homo sapiens, UniProt Q86WV6, G230A/H232R/R293Q); assay: STING HTRF Binding Assay, STING AQ; settings: 20 nM His-tagged STING cytoplasmic domain, 40 nM fluorescein-labeled cGAMP analog probe, one hour; read-out: HTRF Binding Assays IC50 (μM) STING AQ
T2 construct: STING AQ: His-TVMV-S-hSTING(155-341)-G230A-R293Q
T2 sequence (Q86WV6 with tags, fused parts or gaps G230A/H232R/R293Q): as the sequence (Q86WV6 with tags, fused parts or gaps H232R) above, with G99A, R162Q counted along it
Description: as §1

[3] = tested on: IRF pathway in THP1-Dual STING reporter cells; assay: STING THP1 Reporter Assay, IRF pathway (secreted Lucia luciferase); type: cell-based, human; settings: 100% = 100 μM cGAMP
Excerpt: (§2) THP1-Dual™ cells were derived from the human THP-1 monocyte cell line by stable integration of two inducible reporter constructs. To this end, THP1-Dual™ cells allow the simultaneous study of the NF-κB pathway, by monitoring the activity of SEAP, and the IRF pathway by assessing the activity of a secreted luciferase (Lucia). Both reporter proteins are readily measurable in the cell culture supernatant when using QUANTI-Blue™, a SEAP detection reagent, and QUANTI-Luc™, a luciferase detection reagent.
(§3) THP1-Dual™ cells induce the activation of NF-κB in response to STING agonists. They also trigger the IRF pathway upon stimulation with STING agonists, such as cGAMP. Here, the THP-1-Dual cells were used to assess STING binders for function on the cellular level.
(§4) Serial dilutions of compounds in DMSO were added to low volume 384 well plates at 100 nl/well using an ECHO acoustic dispenser (Labcyte, model 550) to achieve final starting concentration of 100 μM in cell suspension. […] One column of the plate was reserved for treatment with cGAMP at 100 μM for 100% activation calculation and one column for no treatment (DMSO only) for baseline activation. Plates were then incubated in 37° C. incubator at 5% CO2 for 20 hours.
(§5) In the SEAP assay, 5 μl of 2× QuantiBlue (Invivogen, cat #Rep-qb2) is added to 384 well black plates seeded with THP1 cells and incubated at 37° C. for 2 hours. Plates were read on the Envision (Perkin Elmer) at 620 nm wavelength (OD620). In the luciferase assay, 5 μl of Quantiluc (Invivogen, Rep-qlc2) is added to white 384 well plates seeded with THP1 cells and read at 5 minutes on the Envision (Perkin Elmer) using a luminescence protocol (RLU). For both cell lines, 100% activation was determined by value (RLU) of THP-1 Dual STING cells stimulated with 100 μM cGAMP (Invivogen, cat #TLRL-NACGA23-5).

[4] = tested on: NF-κB pathway in THP1-Dual STING reporter cells; assay: STING THP1 Reporter Assay, NF-κB pathway (SEAP); type: cell-based, human; settings: 100% = 100 μM cGAMP
Excerpt: as §2, §3, §4, §5

[5] = Homo sapiens, THP1-Dual, 20 h, read-out: THP1 Reporter Assays EC50 (μM) IRF3, THP1-Dual cells, 10% human plasma, 20 hours, luciferase
[6] = Homo sapiens, THP1-Dual, 20 h, read-out: THP1 Reporter Assays EC50 (μM) NFkB, THP1-Dual cells, 10% human plasma, 20 hours, SEAP
[7] = Homo sapiens, THP1-Dual, 20 h, THP1-Dual cells, 10% human plasma, 20 hours, luciferase, read-out: THP1 Reporter Assays EC50 (μM) IRF3
[8] = Homo sapiens, THP1-Dual, 20 h, THP1-Dual cells, 10% human plasma, 20 hours, SEAP, read-out: THP1 Reporter Assays EC50 (μM) NFkB
[9] = read-out: THP1 Reporter Assays EC50 (μM) IRF3, THP1-Dual cells, 10% human plasma, 20 hours, luciferase
[10] = THP1-Dual cells, 10% human plasma, 20 hours, SEAP, read-out: THP1 Reporter Assays EC50 (μM) NFkB
[11] = read-out: THP1 Reporter Assays EC50 (μM) NFkB, THP1-Dual cells, 10% human plasma, 20 hours, SEAP
[12] = THP1-Dual cells, 10% human plasma, 20 hours, luciferase, read-out: THP1 Reporter Assays EC50 (μM) IRF3

Nc1ncnc2c1ncn2[C@@H]1O[C@@H]2COP(=O)(S)O[C@H]3[C@@H](O)[C@H](n4cnc5c(=O)[nH]c6nccn6c54)O[C@@H]3COP(=O)(S)O[C@H]2[C@H]1F (mixture of isomers) [Example 5, (1S,6R,8R,9R,10R,15R,17R,18R)-8-(6-amino-9H-purin-9-yl)-9-fluoro-18-hydroxy-17-{4-oxo-1H,4H,5H-imidazo[2,1-b]purin-1-yl}-3,12-disulfanyl-2,4,7,11,13,16-hexaoxa-3λ^5,12λ^5-diphosphatricyclo[13.3.0.0^6,10]octadecane-3,12-dione]
IC50 [1]: 0.004 µM
IC50 [2]: 0.001 µM
EC50 [3, 5]: 0.49 µM
EC50 [4, 6]: 1.35 µM

O=c1[nH]cnc2c1ncn2[C@@H]1O[C@@H]2COP(=O)(O)O[C@H]3[C@@H](O)[C@H](n4cnc5c4ncn4ccnc54)O[C@@H]3COP(=O)(O)O[C@H]2[C@H]1O [Example 18]
IC50 [1]: 25.3 µM
IC50 [2]: 0.49 µM
EC50 [3, 7]: > 100 µM
EC50 [4, 8]: > 100 µM

Nc1ncnc2c1ncn2[C@@H]1O[C@@H]2COP(=O)(S)O[C@H]3[C@@H](O)[C@H](n4nnc5c([N+](=O)[O-])cccc54)O[C@@H]3COP(=O)(O)O[C@H]2[C@H]1F (single isomer, unassigned) [Example 13-1]
IC50 [1]: 8.45 µM
IC50 [2]: 1.44 µM
EC50 [3, 5]: > 100 µM
EC50 [4, 6]: > 100 µM

Nc1ncnc2c1ncn2[C@@H]1O[C@@H]2COP(=O)(S)O[C@H]3[C@@H](F)[C@H](n4cnc5c4ncn4ncnc54)O[C@@H]3COP(=O)(S)O[C@H]2[C@H]1F (single isomer, unassigned) [Example 12-3]
IC50 [1]: 0.02 µM
IC50 [2]: 0.003 µM
EC50 [3, 9]: 0.27 µM
EC50 [4, 10]: 2.65 µM

NC(=O)c1cc([C@@H]2O[C@@H]3COP(=O)(O)O[C@H]4[C@@H](F)[C@H](n5cnc6c(N)ncnc65)O[C@@H]4COP(=O)(S)O[C@H]3[C@H]2O)ccn1 (stereo partly drawn) [Example 14, 4-[(1R,6R,8S,9S,10S,15R,17R,18R)-17-(6-amino-9H-purin-9-yl)-18-fluoro-3,9-dihydroxy-3,12-dioxo-12-sulfanyl-2,4,7,11,13,16-hexaoxa-3λ^5,12λ^5-diphosphatricyclo[13.3.0.0^6,10]octadecan-8-yl]pyridine-2-carboxamide]
IC50 [1]: > 100 µM
IC50 [2]: 1.14 µM
EC50 [3, 7]: > 100 µM
EC50 [4, 8]: > 100 µM

Nc1ncnc2c1ncn2[C@@H]1O[C@@H]2COP(=O)(O)O[C@H]3[C@@H](F)[C@H](n4cnc5c4ncn4ccnc54)O[C@@H]3COP(=O)(O)O[C@H]2[C@H]1F [Example 3]
IC50 [1]: 0.04 µM
IC50 [2]: 0.02 µM
EC50 [3, 7]: 5.76 µM
EC50 [4, 8]: 24.4 µM

NC(=O)c1cccc2c1nnn2[C@@H]1O[C@@H]2COP(=O)(S)O[C@H]3[C@@H](F)[C@H](n4cnc5c(N)ncnc54)O[C@@H]3COP(=O)(S)O[C@H]2[C@H]1F (single isomer, unassigned) [Example 4-2]
IC50 [1]: 8.1 µM
IC50 [2]: 0.24 µM
EC50 [3, 7]: > 100 µM
EC50 [4, 8]: > 100 µM

Nc1ncnc2c1ncn2[C@@H]1O[C@@H]2COP(=O)(S)O[C@H]3[C@@H](F)[C@H](n4cnc5c4ncn4ccnc54)O[C@@H]3COP(=O)(S)O[C@H]2[C@H]1F (single isomer, unassigned) [Example 21-2]
IC50 [1]: 0.02 µM
IC50 [2]: 0.01 µM
EC50 [3, 9]: 0.13 µM
EC50 [4, 11]: 0.56 µM

NC(=O)c1cccc2c1nnn2[C@@H]1O[C@@H]2COP(=O)(O)O[C@H]3[C@@H](F)[C@H](n4cnc5c4ncn4ccnc54)O[C@@H]3COP(=O)(O)O[C@H]2[C@H]1F [Example 9]
IC50 [1]: 84.1 µM
IC50 [2]: 0.42 µM
EC50 [3, 7]: > 100 µM
EC50 [4, 6]: > 100 µM

NC(=O)c1cccc2c1nnn2[C@@H]1O[C@@H]2COP(=O)(S)O[C@H]3[C@@H](F)[C@H](n4cnc5c(N)ncnc54)O[C@@H]3COP(=O)(S)O[C@H]2[C@H]1F (single isomer, unassigned) [Example 4-3]
IC50 [1]: 12 µM
IC50 [2]: 0.39 µM
EC50 [3, 12]: > 100 µM
EC50 [4, 10]: > 100 µM

NC(=O)c1cc([C@@H]2O[C@@H]3COP(=O)(S)O[C@H]4[C@@H](F)[C@H](n5cnc6c(N)ncnc65)O[C@@H]4COP(=O)(S)O[C@H]3[C@H]2O)[nH]n1 (single isomer, unassigned) [Example 6-3]
IC50 [1]: > 100 µM
IC50 [2]: 16.2 µM
EC50 [3, 12]: > 100 µM
EC50 [4, 10]: > 100 µM

Nc1ncnc2c1ncn2[C@@H]1O[C@@H]2COP(=O)(S)O[C@H]3[C@@H](F)[C@H](n4cnc5c4ncn4ccnc54)O[C@@H]3COP(=O)(S)O[C@H]2[C@H]1F (single isomer, unassigned) [Example 21-4]
IC50 [1]: 0.01 µM
IC50 [2]: 0.01 µM
EC50 [3, 9]: 0.28 µM
EC50 [4, 11]: 0.67 µM

NC(=O)c1cccc2c1nnn2[C@@H]1O[C@@H]2COP(=O)(S)O[C@H]3[C@@H](F)[C@H](n4cnc5c(N)ncnc54)O[C@@H]3COP(=O)(S)O[C@H]2[C@H]1F (single isomer, unassigned) [Example 4-4]
IC50 [1]: 0.78 µM
IC50 [2]: 0.02 µM
EC50 [3, 12]: 81.1 µM
EC50 [4, 10]: 92.4 µM

Nc1ncnc2c1ncn2[C@@H]1O[C@@H]2COP(=O)(S)O[C@H]3[C@@H](F)[C@H](n4cnc5c4ncn4ccnc54)O[C@@H]3COP(=O)(S)O[C@H]2[C@H]1F (single isomer, unassigned) [Example 21-1]
IC50 [1]: 0.32 µM
IC50 [2]: 0.01 µM
EC50 [3, 9]: 28.2 µM
EC50 [4, 11]: 34.6 µM

Nc1ncnc2c1ncn2[C@@H]1O[C@@H]2COP(=O)(S)O[C@H]3[C@@H](F)[C@H](n4cnc5c4ncn4ncnc54)O[C@@H]3COP(=O)(S)O[C@H]2[C@H]1F (single isomer, unassigned) [Example 12-4]
IC50 [1]: 0.002 µM
IC50 [2]: 0.005 µM
EC50 [3, 9]: 0.06 µM
EC50 [4, 10]: 1.09 µM

O=P1(O)OC[C@H]2O[C@@H](n3cnc4c3ncn3ccnc43)[C@H](O)[C@@H]2OP(=O)(O)OC[C@H]2O[C@@H](n3cnc4c3ncn3ccnc43)[C@H](O)[C@@H]2O1 [Example 19]
IC50 [1]: 28.6 µM
IC50 [2]: 0.65 µM
EC50 [3, 7]: > 100 µM
EC50 [4, 8]: > 100 µM
